Data taken from ChEMBL document CHEMBL1201862, “PubChem BioAssay data set” (2004).
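Exposure lasted 48 hours, with cells grown in 96-well plates and compounds tested at five concentrations. GI50 marks 50% less growth.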 The source made the active and inactive calls. Cut-off read from the data, not from the text of the source: active = GI50 up to about 1.1 µM and inactive = higher.

Experiments:
Test in all cases: NCI tumour cell line growth inhibition, 48 h
OVCAR-3 = tested on: OVCAR-3
HOP-62 = tested on: HOP-62
KM-20L2 = tested on: KM-20L2
Malme-3M = tested on: Malme-3M
OVCAR-8 = tested on: OVCAR-8
SNB-19 = tested on: SNB-19
SR = tested on: SR
SK-OV-3 = tested on: SK-OV-3
HL-60 = tested on: HL-60
CAKI-1 = tested on: CAKI-1
SN12C = tested on: SN12C
UACC-62 = tested on: UACC-62
RXF 393 = tested on: RXF 393
EKVX = tested on: EKVX
HT-29 = tested on: HT-29
NCI-H460 = tested on: NCI-H460
A498 = tested on: A498
NCI/ADR-RES = tested on: NCI/ADR-RES
MCF7 = tested on: MCF7
BT-549 = tested on: BT-549

Row | Compound | GI50 (OVCAR-3) | GI50 (HOP-62) | GI50 (KM-20L2) | GI50 (Malme-3M) | GI50 (OVCAR-8) | GI50 (SNB-19) | GI50 (SR) | GI50 (SK-OV-3) | GI50 (HL-60) | GI50 (CAKI-1) | GI50 (SN12C) | GI50 (UACC-62) | GI50 (RXF 393) | GI50 (EKVX) | GI50 (HT-29) | GI50 (NCI-H460) | GI50 (A498) | GI50 (NCI/ADR-RES) | GI50 (MCF7) | GI50 (BT-549)
1 | CCCC(C(=O)OC)C1N/C(=N/C#N)N(Cc2ccccc2)C1=O (stereo not given) | > 100 µM (inactive) | > 100 µM (inactive) | > 100 µM (inactive) | > 100 µM (inactive) | > 100 µM (inactive) | > 100 µM (inactive) | 91.2 µM (inactive) | > 100 µM (inactive) | > 100 µM (inactive) | > 100 µM (inactive) | > 100 µM (inactive) | > 100 µM (inactive) | > 100 µM (inactive) | > 100 µM (inactive) | > 100 µM (inactive) | > 100 µM (inactive) |  |  |  | 
2 | COc1cc2cnc3c4cc(O)ccc4ccc3c2cc1OC | 17.6 µM (inactive) | 36.8 µM (inactive) | > 100 µM (inactive) | 51.1 µM (inactive) | 23.6 µM (inactive) | 30.7 µM (inactive) | 34.2 µM (inactive) | > 100 µM (inactive) | 33.2 µM (inactive) | > 100 µM (inactive) | 35.2 µM (inactive) | 72.4 µM (inactive) | 46.5 µM (inactive) | > 100 µM (inactive) | > 100 µM (inactive) | > 100 µM (inactive) |  |  |  | 
3 | CS(=O)(=O)NNS(=O)(=O)c1ccc(F)cc1 | > 100 µM (inactive) | > 100 µM (inactive) | > 100 µM (inactive) | > 100 µM (inactive) | > 100 µM (inactive) | > 100 µM (inactive) | > 100 µM (inactive) |  | > 100 µM (inactive) | > 100 µM (inactive) | > 100 µM (inactive) | > 100 µM (inactive) | > 100 µM (inactive) | > 100 µM (inactive) | > 100 µM (inactive) | > 100 µM (inactive) | > 100 µM (inactive) |  |  | 
4 | CCN(CC)CCC1(C2CCCCC2)CCC(=O)NC1=O (stereo not given) | > 100 µM (inactive) | > 100 µM (inactive) | > 100 µM (inactive) | > 100 µM (inactive) | > 100 µM (inactive) | > 100 µM (inactive) |  | > 100 µM (inactive) |  | > 100 µM (inactive) | > 100 µM (inactive) | > 100 µM (inactive) | > 100 µM (inactive) | > 100 µM (inactive) | > 100 µM (inactive) | > 100 µM (inactive) | > 100 µM (inactive) |  |  | 
5 | Cc1c2ccncc2c(C)c2c1[nH]c1ccc(OCC(F)(F)F)cc12 | 1.85 µM (inactive) | 1.63 µM (inactive) | 1.47 µM (inactive) | 1.73 µM (inactive) | 1.32 µM (inactive) | 1.64 µM (inactive) | 0.828 µM (active) | 1.82 µM (inactive) | 2.08 µM (inactive) | 2.11 µM (inactive) | 1.37 µM (inactive) |  | 1.9 µM (inactive) | 1.61 µM (inactive) | 1.53 µM (inactive) | 1.18 µM (inactive) |  |  |  | 
6 | COC(=O)C1[C@H](c2cc(OC)c(OC)c(OC)c2)OC(=O)C1(C(=O)OC)C(=O)c1ccc2c(c1)OCO2 (stereo not given in full) | > 100 µM (inactive) | > 100 µM (inactive) | > 100 µM (inactive) | > 100 µM (inactive) | > 100 µM (inactive) | > 100 µM (inactive) |  | > 100 µM (inactive) | > 100 µM (inactive) | > 100 µM (inactive) | > 100 µM (inactive) | > 100 µM (inactive) | > 100 µM (inactive) | > 100 µM (inactive) | > 100 µM (inactive) | > 100 µM (inactive) | > 100 µM (inactive) |  |  | 
7 | O=C1NC(=O)/C(=N\c2cccc3c(=O)[nH][nH]c(=O)c23)C(c2nc3ccccc3s2)C1=O (stereo not given) | > 100 µM (inactive) | > 100 µM (inactive) | > 100 µM (inactive) | > 100 µM (inactive) | > 100 µM (inactive) | > 100 µM (inactive) |  | > 100 µM (inactive) | > 100 µM (inactive) | > 100 µM (inactive) | > 100 µM (inactive) | > 100 µM (inactive) | > 100 µM (inactive) | > 100 µM (inactive) | > 100 µM (inactive) | > 100 µM (inactive) | > 100 µM (inactive) |  |  | 
8 | O=c1[nH]cc(COCCO)c(=O)[nH]1 | > 100 µM (inactive) | > 100 µM (inactive) | > 100 µM (inactive) | > 100 µM (inactive) | > 100 µM (inactive) | > 100 µM (inactive) |  | > 100 µM (inactive) | > 100 µM (inactive) | > 100 µM (inactive) | > 100 µM (inactive) | > 100 µM (inactive) | > 100 µM (inactive) | > 100 µM (inactive) | > 100 µM (inactive) | > 100 µM (inactive) | > 100 µM (inactive) |  |  | 
9 | N=C(N)NS(=O)(=O)c1ccc(NC(=O)c2cccc3c(N)c4ccccc4nc23)cc1 | 84.9 µM (inactive) | > 100 µM (inactive) | 68.2 µM (inactive) | > 100 µM (inactive) | > 100 µM (inactive) | 26.7 µM (inactive) |  | > 100 µM (inactive) |  | > 100 µM (inactive) | > 100 µM (inactive) | > 100 µM (inactive) | > 100 µM (inactive) | > 100 µM (inactive) |  | > 100 µM (inactive) | > 100 µM (inactive) |  |  | 
10 | COc1ccc(OC)c(NC(=O)C2=C(C)NC(C)=C(C(=O)Nc3cc(OC)ccc3OC)C2c2ccccc2)c1 | > 100 µM (inactive) | > 100 µM (inactive) | 86.5 µM (inactive) | > 100 µM (inactive) | > 100 µM (inactive) | > 100 µM (inactive) |  | > 100 µM (inactive) |  | > 100 µM (inactive) | > 100 µM (inactive) | > 100 µM (inactive) | > 100 µM (inactive) | > 100 µM (inactive) | > 100 µM (inactive) | > 100 µM (inactive) | > 100 µM (inactive) |  |  | 
11 | COc1ccc(C2NC(c3ccc(OC)cc3)C(C)C(=O)C2C)cc1 (stereo not given) | > 100 µM (inactive) | > 100 µM (inactive) | > 100 µM (inactive) | > 100 µM (inactive) | > 100 µM (inactive) | > 100 µM (inactive) |  | > 100 µM (inactive) | > 100 µM (inactive) |  | > 100 µM (inactive) | > 100 µM (inactive) | > 100 µM (inactive) | 67 µM (inactive) | > 100 µM (inactive) | > 100 µM (inactive) | > 100 µM (inactive) |  |  | 
12 | COc1ccc2c(c1)[n+]([O-])c(-c1ccc(Cl)c(Cl)c1)c(N)[n+]2[O-] | 26.1 µM (inactive) | 60.8 µM (inactive) | 32.3 µM (inactive) | 23.6 µM (inactive) | 34.9 µM (inactive) | > 100 µM (inactive) | 45 µM (inactive) | 55.1 µM (inactive) | 23.7 µM (inactive) | 37.9 µM (inactive) | 46.1 µM (inactive) |  |  | 33.6 µM (inactive) | 37.5 µM (inactive) | 25.1 µM (inactive) | 47.5 µM (inactive) |  |  | 
13 | COc1ccccc1N1C(=O)C2c3[nH]c4ccccc4c3C3CCC(C(C)(C)C)CC3C2C1=O (stereo not given) |  | > 100 µM (inactive) | > 100 µM (inactive) | > 100 µM (inactive) | > 100 µM (inactive) | > 100 µM (inactive) | 97.1 µM (inactive) | > 100 µM (inactive) | > 100 µM (inactive) |  | > 100 µM (inactive) | > 100 µM (inactive) | > 100 µM (inactive) | > 100 µM (inactive) | > 100 µM (inactive) |  | > 100 µM (inactive) |  |  | 
14 | CC(=O)C1=C(O)/C(=C\c2ccco2)OC1=O | > 10 µM (inactive) | > 10 µM (inactive) |  | > 10 µM (inactive) | > 10 µM (inactive) | > 10 µM (inactive) | > 10 µM (inactive) | > 10 µM (inactive) | > 10 µM (inactive) | > 10 µM (inactive) | > 10 µM (inactive) | > 10 µM (inactive) | > 10 µM (inactive) | > 10 µM (inactive) | > 10 µM (inactive) | > 10 µM (inactive) | > 10 µM (inactive) | > 10 µM (inactive) | > 10 µM (inactive) | > 10 µM (inactive)
15 | CCN(CC)c1ccc(/C=C2\CCc3ccc([N+](=O)[O-])cc3C2=O)cc1 | 1.93 µM (inactive) | 0.471 µM (active) |  | 2.52 µM (inactive) | 3.73 µM (inactive) | 1.42 µM (inactive) | 0.324 µM (active) | 4.54 µM (inactive) | 0.249 µM (active) | > 26.6 µM (inactive) | 2.99 µM (inactive) | 1.29 µM (inactive) | 2.99 µM (inactive) | 5.27 µM (inactive) | 0.256 µM (active) | 3.84 µM (inactive) | 2.56 µM (inactive) | 1.03 µM (active) | 0.535 µM (active) | > 100 µM (inactive)
16 | CC(C)=CCC[C@@H](C)C1=C(Nc2ccccc2Cl)C(=O)C(C)=C(O)C1=O | 3.36 µM (inactive) | 3.45 µM (inactive) |  | 4.29 µM (inactive) | 2.81 µM (inactive) | 4.49 µM (inactive) | 1.2 µM (inactive) | 5.14 µM (inactive) | 0.612 µM (active) | 4.06 µM (inactive) | 3.72 µM (inactive) | 3.67 µM (inactive) | 11.7 µM (inactive) | 3.12 µM (inactive) | 3.56 µM (inactive) | 2.43 µM (inactive) | 5.42 µM (inactive) | 1.1 µM (active) | 7.69 µM (inactive) | 7.16 µM (inactive)
17 | CCOC(=O)N1CCN(c2c(C)nc(C)nc2O)CC1 | > 100 µM (inactive) | > 100 µM (inactive) |  | > 100 µM (inactive) | > 100 µM (inactive) | > 100 µM (inactive) | > 100 µM (inactive) | > 100 µM (inactive) | > 100 µM (inactive) | > 100 µM (inactive) | > 100 µM (inactive) | > 100 µM (inactive) | > 100 µM (inactive) | > 100 µM (inactive) | > 100 µM (inactive) | > 100 µM (inactive) | > 100 µM (inactive) | > 100 µM (inactive) | > 100 µM (inactive) | > 100 µM (inactive)
